According to US9670229B2, “5-HT3 receptor antagonists” (Takeda Pharmaceutical Company Limited, priority 2012, dated 2017):

Target: 5-HT3a receptor expressed in HEK-293T cells (Homo sapiens (Human), UniProt P46098)
Assay: Inhibition of Ca flux activity of 5-HT3 in vitro assay
Format: cell-based
Details: approximate IC50; calcium flux, 5HT 216 nM, HEK-293T cells transfected with 5-HT3a
Method: The 5-HT3 antagonist activity of the compounds of the invention was determined by measuring the ability of the compounds to inhibit the calcium flux activity of […] receptor expressed in HEK-293T cells. HEK-293T cells were transfected with the 5-HT3a expression construct using Xtreme Gene 9 (Roche) in 150 mm tissue culture treated plates and incubated for 24 hours at 37° C. Cells were then split and plated at a density of 60K cells/well in poly-lysine coated, black 96-well plates with clear bottoms (BD BioSciences) and incubated overnight at 37° C. Growth media was removed and cells loaded with 200 uL calcium indicator dye in HBSS containing 20 mM HEPES (Calcium 5 Assay kit, Molecular Devices) and incubated at 37° C. for 1 hour. While cells were incubating, the 10× antagonist and agonist/antagonist addition plates were made. For 10× antagonist plate: half log serial dilutions (final concentrations range from 10^−7 through 10^−10 with the bottom well a negative, no ligand control) were made from test compounds in DMSO at a 1000× concentration and then diluted to 10× in HBSS/20 mM HEPES. For addition plate: 5HT was diluted to 100× in HBSS/20 mM HEPES (final concentration in the assay-216 nM) and 15 uL was added to each well of the addition plate, 15 uL of 10× compound was also added to the addition plate, and finally 120 uL of HBSS/20 mM HEPES (for a total of 150 uL). Cells were then removed from the incubator and equilibrated to room temperature for 10 minutes, then 22.5 uL of 10× test compounds were added in triplicate to the plates and incubated at room temperature for 10 minutes (Tropisetron was used as a positive control in every assay). Test plate and addition plate were loaded into the FlexStation III (Molecular Devices), and using the fluidics, 22.5 uL compound additions were made (at t=˜17 seconds), and fluorescence was measured for 90 seconds, reading every 2.2 seconds. Data sets were analyzed as max minus min using Software Max Pro (Molecular Devices). IC50 curves were generated using non-linear regression in GraphPad Prism.

5-HT3a receptor expressed in HEK-293T cells, sequence (P46098 24-478): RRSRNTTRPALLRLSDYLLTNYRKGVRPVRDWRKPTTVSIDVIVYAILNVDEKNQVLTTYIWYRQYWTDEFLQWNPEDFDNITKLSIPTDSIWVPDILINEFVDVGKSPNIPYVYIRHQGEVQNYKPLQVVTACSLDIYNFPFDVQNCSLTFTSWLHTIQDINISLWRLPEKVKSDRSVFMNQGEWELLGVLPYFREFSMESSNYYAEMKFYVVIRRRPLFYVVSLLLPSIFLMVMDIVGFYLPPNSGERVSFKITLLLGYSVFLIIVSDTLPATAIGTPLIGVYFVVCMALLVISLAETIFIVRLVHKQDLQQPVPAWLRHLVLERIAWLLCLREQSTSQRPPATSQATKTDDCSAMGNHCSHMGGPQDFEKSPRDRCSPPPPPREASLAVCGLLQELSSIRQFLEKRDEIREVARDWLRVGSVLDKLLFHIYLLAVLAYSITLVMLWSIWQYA

Compound | IC50 [nM]
CN1[C@@H]2COC[C@H]1C[C@@H](NC(=O)c1cn(-c3ccccn3)c3ccccc13)C2 [Compound 6, N-((1R,5S,7S)-9-methyl-d3-3-oxa-9-azabicyclo[3.3.1]nonan-7-yl)-1-(pyridin-2-yl)-1H-indole-3-carboxamide, 2,2,2-trifluoroacetate] | 1.1
CN1[C@@H]2COC[C@H]1C[C@@H](OC(=O)c1cn(-c3cnn(C)c3)c3ccccc13)C2 [Compound 26, (1R,5S,7S)-9-methyl-3-oxa-9-azabicyclo[3.3.1]nonan-7-yl 1-(1-methyl-1H-pyrazol-4-yl)-1H-indole-3-carboxylate] | 1.2
CN1[C@@H]2COC[C@H]1C[C@@H](OC(=O)c1cn(-c3cn[nH]c3)c3ccccc13)C2 [Compound 29, (1R,5S,7S)-9-methyl-3-oxa-9-azabicyclo [3.3.1]nonan-7-yl 1-(1H-pyrazol-4-yl)-1H-indole-3-carboxylate] | 0.462
(1R,5S,7S)-9-methyl-3-oxa-9-azabicyclo [3.3.1]nonan-7-yl 1-(1-(2-fluoroethyl)- 1H-pyrazol-4-yl)-1H-indole-3-carboxylate, 2,2,2-trifluoroacetic acid salt [Compound 18] | 2.01
CN1[C@@H]2COC[C@H]1C[C@@H](NC(=O)c1cn(-c3ccc[n+]([O-])c3)c3ccccc13)C2 [Compound 32, 3-(3-(((1R,5S,7S)-9-methyl-3-oxa-9-azabicyclo[3.3.1]nonan-7-yl)carbamoyl)-1H-indol-1-yl)pyridine 1-oxide] | 1.36
